Assays:
Test in all cases: relative viability (nuclei count vs DMSO), 5 days (fraction); higher = more cells survive
[1] = compound: CC[C@@H]1C(=O)N(C)c2cnc(Nc3ccc(C(=O)NC4CCN(C)CC4)cc3OC)nc2N1C1CCCC1 [BI-2536] + COc1cccc2cc(-c3nc([C@H]4CC[C@H](C(=O)O)CC4)n4ncnc(N)c34)[nH]c12 [OSI-027] (partner 0.5 µM)
How it was run: (§1)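 Lung cancer cell lines in 1536-well plates got either a single drug or a fixed anchor-drug dose together with five library-drug doses (not always all listed) in √10 steps, by pin tool, on the day after seeding. Nuclei were counted after 5 days, and relative viability is the treated-to-vehicle ratio of nuclei counts. Values are medians of duplicate plates.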

[2] = compound: CC1CC(=O)N(C2=CN=C(N=C2N1C3CCCC3)NC4=C(C=C(C=C4)C(=O)NC5CCN(CC5)C)OC)C [NPK76-II-72-1] + CS(=O)(=O)N1CCN(Cc2cc3nc(-c4cccc5[nH]ncc45)nc(N4CCOCC4)c3s2)CC1 [Pictilisib] (partner 1 µM)
How it was run: as §1

[3] = compound: CC[C@@H]1C(=O)N(C)c2cnc(Nc3ccc(C(=O)NC4CCN(C)CC4)cc3OC)nc2N1C1CCCC1 [BI-2536] + NC(=O)Nc1cc(-c2cccc(F)c2)sc1C(=O)N[C@H]1CCCNC1 [AZD7762] (partner 0.2 µM)
How it was run: as §1

[4] = compound: CC1CC(=O)N(C2=CN=C(N=C2N1C3CCCC3)NC4=C(C=C(C=C4)C(=O)NC5CCN(CC5)C)OC)C [NPK76-II-72-1] + CCNC(=O)c1noc(-c2cc(C(C)C)c(O)cc2O)c1-c1ccc(CN2CCOCC2)cc1 [Luminespib] (partner 0.01 µM)
How it was run: as §1

| Cell Line | relative viability ([1]; first compound 0.01 µM) | relative viability ([1]; first compound 0.03162 µM) | relative viability ([1]; first compound 0.1 µM) | relative viability ([1]; first compound 0.3162 µM) | relative viability ([1]; first compound 1 µM) | relative viability ([2]; first compound 0.01 µM) | relative viability ([2]; first compound 0.03162 µM) | relative viability ([2]; first compound 0.1 µM) | relative viability ([2]; first compound 0.3162 µM) | relative viability ([2]; first compound 1 µM) | relative viability ([3]; first compound 0.01 µM) | relative viability ([3]; first compound 0.03162 µM) | relative viability ([3]; first compound 0.1 µM) | relative viability ([3]; first compound 0.3162 µM) | relative viability ([3]; first compound 1 µM) | relative viability ([4]; first compound 0.01 µM) | relative viability ([4]; first compound 0.03162 µM) | relative viability ([4]; first compound 0.1 µM) | relative viability ([4]; first compound 0.3162 µM) | relative viability ([4]; first compound 1 µM) |
| --- | --- | --- | --- | --- | --- | --- | --- | --- | --- | --- | --- | --- | --- | --- | --- | --- | --- | --- | --- | --- |
| NCI-H838 | 0.386 | 0.444 | 0.393 | 0.146 | 0.149 | 0.37 | 0.481 | 0.47 | 0.435 | 0.432 | 0.905 | 0.803 | 0.831 | 0.634 | 0.634 | 0.288 | 0.344 | 0.299 | 0.273 | 0.274 |
| NCI-H1355 | 0.421 | 0.389 | 0.206 | 0.176 | 0.189 | 0.409 | 0.391 | 0.432 | 0.434 | 0.442 | 0.697 | 0.776 | 0.751 | 0.269 | 0.185 | 0.678 | 0.716 | 0.756 | 0.67 | 0.763 |
| NCI-H1395 | 0.617 | 0.64 | 0.313 | 0.306 | 0.386 | 0.615 | 0.645 | 0.627 | 0.632 | 0.628 | 0.382 | 0.348 | 0.319 | 0.351 | 0.325 | 0.774 | 0.76 | 0.678 | 0.709 | 0.863 |
| NCI-H1437 | 0.857 | 0.925 | 0.398 | 0.172 | 0.149 | 0.479 | 0.441 | 0.451 | 0.427 | 0.477 | 1.01 | 0.892 | 1.03 | 0.141 | 0.163 | 1.03 | 1.13 | 1.09 | 1.03 | 1.08 |
| NCI-H1651 | 0.686 | 0.758 | 0.272 | 0.0807 | 0.0995 | 0.432 | 0.548 | 0.703 | 0.557 | 0.592 | 0.476 | 0.543 | 0.392 | 0.261 | 0.0882 | 0.925 | 0.995 | 0.698 | 0.743 | 0.852 |
| NCI-H1666 | 0.881 | 0.842 | 0.686 | 0.378 | 0.311 | 0.305 | 0.55 | 0.35 | 0.381 | 0.469 | 0.803 | 0.851 | 0.827 | 0.411 | 0.368 | 0.977 | 1.03 | 0.987 | 0.924 | 1.06 |
| NCI-H1734 | 0.57 | 0.494 | 0.206 | 0.179 | 0.19 | 0.427 | 0.478 | 0.383 | 0.411 | 0.446 | 0.461 | 0.596 | 0.16 | 0.134 | 0.142 | 0.167 | 0.178 | 0.189 | 0.17 | 0.186 |
| NCI-H1755 | 0.707 | 0.692 | 0.324 | 0.245 | 0.275 | 0.369 | 0.462 | 0.397 | 0.432 | 0.422 | 0.452 | 0.467 | 0.305 | 0.253 | 0.265 | 0.579 | 0.563 | 0.264 | 0.371 | 0.503 |
| NCI-H1792 | 0.818 | 0.758 | 0.678 | 0.591 | 0.395 | 0.353 | 0.285 | 0.26 | 0.29 | 0.286 | 0.704 | 0.692 | 0.415 | 0.0392 | 0.0281 | 0.404 | 0.504 | 0.469 | 0.5 | 0.556 |
| NCI-H1793 | 0.271 | 0.256 | 0.143 | 0.157 | 0.136 | 0.309 | 0.472 | 0.483 | 0.332 | 0.257 | 0.45 | 0.519 | 0.102 | 0.128 | 0.123 | 0.144 | 0.166 | 0.203 | 0.176 | 0.201 |
| NCI-H1915 | 0.597 | 0.637 | 0.185 | 0.104 | 0.121 | 0.988 | 1.08 | 0.91 | 0.846 | 0.902 | 0.641 | 0.696 | 0.535 | 0.195 | 0.109 | 0.762 | 0.798 | 0.75 | 0.7 | 0.845 |
| NCI-H1944 | 0.418 | 0.443 | 0.291 | 0.134 | 0.148 | 0.351 | 0.352 | 0.318 | 0.338 | 0.35 | 0.476 | 0.611 | 0.269 | 0.12 | 0.13 | 0.743 | 0.781 | 0.722 | 0.723 | 0.807 |
| NCI-H1975 | 0.628 | 0.623 | 0.515 | 0.125 | 0.107 | 0.267 | 0.278 | 0.28 | 0.279 | 0.277 | 0.726 | 0.568 | 0.639 | 0.236 | 0.177 | 0.23 | 0.196 | 0.183 | 0.243 | 0.294 |
| NCI-H1993 | 0.521 | 0.481 | 0.519 | 0.484 | 0.453 | 0.811 | 0.804 | 0.779 | 0.88 | 0.759 | 0.734 | 0.668 | 0.407 | 0.53 | 0.348 | 0.848 | 0.87 | 0.925 | 0.764 | 0.818 |
| NCI-H2085 | 0.833 | 0.602 | 0.282 | 0.153 | 0.272 | 0.494 | 0.385 | 0.494 | 0.398 | 0.507 | 1.03 | 0.963 | 0.737 | 0.217 | 0.27 | 0.442 | 0.437 | 0.391 | 0.381 | 0.437 |
| NCI-H2087 | 0.564 | 0.541 | 0.186 | 0.101 | 0.0808 | 0.895 | 0.838 | 0.895 | 0.722 | 1.04 | 1.26 | 1.45 | 1.23 | 0.111 | 0.114 | 0.154 | 0.16 | 0.136 | 0.158 | 0.185 |
| NCI-H2126 | 0.832 | 0.641 | 0.472 | 0.276 | 0.218 | 0.508 | 0.517 | 0.457 | 0.507 | 0.476 | 1.01 | 1.09 | 0.855 | 0.428 | 0.223 | 0.88 | 0.907 | 0.933 | 0.814 | 0.901 |
| NCI-H2170 | 0.762 | 0.757 | 0.285 | 0.172 | 0.209 | 0.281 | 0.357 | 0.279 | – | 0.333 | 0.854 | 0.83 | 0.184 | 0.146 | 0.2 | 0.63 | 0.403 | 0.586 | 0.548 | 0.61 |
| NCI-H2347 | – | 0.464 | 0.346 | 0.285 | 0.276 | 0.811 | 0.817 | 0.727 | 0.773 | 0.631 | 0.647 | 0.643 | 0.73 | 0.545 | 0.325 | 0.529 | 0.593 | 0.459 | 0.526 | 0.437 |
| NCI-H2405 | 0.609 | 0.64 | 0.481 | 0.163 | 0.312 | 0.485 | 0.467 | 0.479 | 0.453 | 0.452 | 0.698 | 0.624 | 0.269 | 0.303 | 0.289 | 0.625 | 0.688 | 0.773 | 0.771 | 0.93 |
| NCI-H3122 | 0.944 | 0.16 | 0.13 | 0.17 | 0.213 | 0.625 | 0.618 | 0.601 | 0.652 | 0.63 | 0.939 | 1 | 0.204 | 0.139 | 0.117 | 0.095 | 0.101 | 0.113 | 0.0814 | 0.079 |
| PC-3 [JPC-3] | 0.828 | 0.581 | 0.333 | 0.179 | 0.16 | 0.779 | 0.772 | 0.561 | 0.667 | 0.743 | 0.878 | 0.76 | 0.321 | 0.216 | 0.197 | 0.622 | 0.705 | 0.638 | 0.713 | 0.728 |
| PC-14 | 0.906 | 0.546 | 0.111 | 0.032 | 0.0346 | 0.6 | 0.692 | 0.619 | 0.6 | 0.805 | 0.41 | 0.395 | 0.32 | 0.0493 | 0.0531 | 0.133 | 0.125 | 0.239 | 0.132 | 0.164 |
| RERF-LC-KJ | 0.64 | 0.361 | 0.184 | 0.188 | 0.198 | 0.491 | 0.543 | 0.546 | 0.482 | 0.492 | 0.943 | 0.926 | 0.808 | 0.142 | 0.174 | 1.33 | 1.41 | 1.3 | 1.21 | 1.33 |
